Measurements as given in the supplement of paper PMC13380429.

Assays:
Conditions in all cases: 72 h
[1] = system: Calu-3; assay: drug sensitivity score (DSS) for viability; higher = more toxic; extreme values may be limits of the assay
[2] = system: U2OS; assay: as above
[3] = system: Caco-2; assay: as above
[4] = system: HepG2; assay: as above
[5] = system: Vero E6; assay: as above
[6] = system: Calu-3; assay: relative viability EC50 (midpoint between 100% and the lowest measured viability); higher = less toxic
[7] = system: U2OS; assay: as above
[8] = system: Caco-2; assay: as above
[9] = system: HepG2; assay: as above
[10] = system: Vero E6; assay: as above
[11] = system: Calu-3; assay: cell viability relative to DMSO; higher = less toxic
[12] = system: U2OS; assay: as above
[13] = system: Caco-2; assay: as above
[14] = system: HepG2; assay: as above
[15] = system: Vero E6; assay: as above

SMILES	drug sensitivity score [1]	drug sensitivity score [2]	drug sensitivity score [3]	drug sensitivity score [4]	drug sensitivity score [5]	relative viability EC50 [6]	relative viability EC50 [7]	relative viability EC50 [8]	relative viability EC50 [9]	relative viability EC50 [10]	cell viability ([11]; 1 nM)	cell viability ([11]; 10 nM)	cell viability ([11]; 100 nM)	cell viability ([11]; 1000 nM)	cell viability ([11]; 10000 nM)	cell viability ([12]; 1 nM)	cell viability ([12]; 10 nM)	cell viability ([12]; 100 nM)	cell viability ([12]; 1000 nM)	cell viability ([12]; 10000 nM)	cell viability ([13]; 1 nM)	cell viability ([13]; 10 nM)	cell viability ([13]; 100 nM)	cell viability ([13]; 1000 nM)	cell viability ([13]; 10000 nM)	cell viability ([14]; 1 nM)	cell viability ([14]; 10 nM)	cell viability ([14]; 100 nM)	cell viability ([14]; 1000 nM)	cell viability ([14]; 10000 nM)	cell viability ([15]; 1 nM)	cell viability ([15]; 10 nM)	cell viability ([15]; 100 nM)	cell viability ([15]; 1000 nM)	cell viability ([15]; 10000 nM)
Cn1cc(-c2ccc3nnc(C(F)(F)c4ccc5ncccc5c4)n3n2)cn1	0	0	0	0	0	> 10 µM	> 10 µM	> 10 µM	> 10 µM	> 10 µM	97.4%	104%	89.6%	108%	106%	104%	101%	101%	95.5%	96.9%	105%	96%	95.3%	95.9%	92.3%	102%	94.3%	105%	109%	104%	99.9%	107%	101%	97.8%	92.4%
CCC(=O)O[C@@H](O[P@@](=O)(CCCCc1ccccc1)CC(=O)N1C[C@H](C2CCCCC2)C[C@H]1C(=O)O)C(C)C [fosinopril]	0	0	0	0	0	> 10 µM	> 10 µM	> 10 µM	> 10 µM	> 10 µM	98.3%	89.7%	103%	85.7%	100%	103%	97.2%	105%	97.7%	104%	100%	95.3%	99.3%	92.7%	103%	103%	92.7%	93.7%	103%	97.9%	99.8%	97.8%	92.7%	95.4%	99.6%
Cc1ccc(O)c([C@H](CCN(C(C)C)C(C)C)c2ccccc2)c1 [tolterodine]	0.8	0	0	0	0	> 10 µM	> 10 µM	> 10 µM	> 10 µM	> 10 µM	99.7%	94.1%	88.6%	88.6%	95.8%	99.9%	94.4%	99.9%	98.7%	96.1%	102%	89.6%	98.5%	85.9%	108%	115%	98.5%	102%	105%	92.7%	105%	99.8%	102%	103%	96.9%
CC(C)(C)NCC(O)COc1cccc2[nH]c(=O)[nH]c12 (stereo not given)	0	0	0	0	0	> 10 µM	> 10 µM	> 10 µM	> 10 µM	> 10 µM	94.9%	101%	88.6%	106%	106%	96.8%	97%	97.4%	97.9%	101%	96.7%	100%	96.5%	97%	97.9%	97.7%	93.3%	105%	110%	113%	98.7%	97.2%	97.1%	103%	105%
CCc1cccc(CC)c1NC(=O)CN(CC(=O)O)CC(=O)O [etifenin]	0	0	0	0	0	> 10 µM	> 10 µM	> 10 µM	> 10 µM	> 10 µM	94.6%	104%	105%	90.5%	90.6%	87.1%	97.2%	90.1%	103%	106%	83.1%	104%	95.7%	124%	93.3%	104%	84.1%	106%	95.9%	113%	106%	93.7%	106%	97.4%	95%
CNC(=O)[C@H](Cc1c[nH]c2ccccc12)NC(=O)[C@@H](CC(=O)NO)CC(C)C [ilomastat]	0	0	0	0	0	> 10 µM	> 10 µM	> 10 µM	> 10 µM	> 10 µM	102%	98.6%	107%	97.3%	90.4%	97.6%	98.2%	85.8%	102%	84.7%	94.1%	104%	102%	96.6%	102%	107%	90.5%	104%	90.5%	103%	97.4%	97%	95%	93.2%	88.7%
CC1(C)CCC(C)(C)c2cc(C3(c4ccc(C(=O)O)cc4)OCCO3)ccc21 [BMS-649]	0	0	0	0	0	> 10 µM	> 10 µM	> 10 µM	> 10 µM	> 10 µM	96.7%	99%	100%	91.5%	109%	95.2%	98.4%	101%	103%	99%	92.7%	95.5%	93.1%	100%	101%	109%	87.6%	113%	108%	103%	96%	97.6%	100%	92.4%	97.8%
